# Experimental data: patent publication US8188048B2 (priority 2006, dated 2012)
# Tested on: CCI-rats (chronic constriction injury of the sciatic nerve); tactile allodynia in ipsilateral hindpaw, antinociception in contralateral hindpaw
# Parameters: species or system Sprague-Dawley rats
# Conditions: rat, in vivo
structure (smiles),measurement,setting,value
"CN1CC[C@]23c4c5ccc(O)c4O[C@H]2[C@@H](O)C=C[C@H]3[C@H]1C5.Cl [Morphine, Morphine hydrochloride, reference compound]",ED10,,0.7 nmol
same,ED20,,3.5 nmol
same,time of peak antiallodynic and antinociceptive responses post-dosing,,0.5 to 0.75 h
same,dose-response at high i.t. doses,hydrochloride,pronounced sub-maximal ‘ceiling’ effect
